# Source: ChEMBL document CHEMBL1153245, “A profile of the in vitro anti-tumor activity of imidazolium-based ionic liquids” (2010)
# Experiments:
# Type in all cases: functional
# CCRF-CEM = assay: Anticancer activity against human CCRF-CEM cells after 48 hrs by sulforhodamine B assay
# K562 = assay: Anticancer activity against human K562 cells after 48 hrs by sulforhodamine B assay
# HOP-62 = assay: Anticancer activity against human HOP62 cells after 48 hrs by sulforhodamine B assay
# HOP-92 = assay: Anticancer activity against human HOP92 cells after 48 hrs by sulforhodamine B assay
# COLO 205 = assay: Anticancer activity against human COLO205 cells after 48 hrs by sulforhodamine B assay
# HCC 2998 = assay: Anticancer activity against human HCC2998 cells after 48 hrs by sulforhodamine B assay
# HCT-116 = assay: Anticancer activity against human HCT116 cells after 48 hrs by sulforhodamine B assay
# KM12 = assay: Anticancer activity against human KM12 cells after 48 hrs by sulforhodamine B assay; settings: for CC50: read-out: LC50 (the source's name)
# SW-620 = assay: Anticancer activity against human SW620 cells after 48 hrs by sulforhodamine B assay
# SF-268 = assay: Anticancer activity against human SF268 cells after 48 hrs by sulforhodamine B assay
# SF-539 = assay: Anticancer activity against human SF539 cells after 48 hrs by sulforhodamine B assay
# SNB-19 = assay: Anticancer activity against human SNB19 cells after 48 hrs by sulforhodamine B assay
# SNB-75 = assay: Anticancer activity against human SNB75 cells after 48 hrs by sulforhodamine B assay; settings: for CC50: read-out: LC50 (the source's name)
# U-251 = assay: Anticancer activity against human U251 cells after 48 hrs by sulforhodamine B assay
# LOX IMVI = assay: Anticancer activity against human LOXIMVI cells after 48 hrs by sulforhodamine B assay; settings: for CC50: read-out: LC50 (the source's name)
# Malme-3M = assay: Anticancer activity against human MALME-3M cells after 48 hrs by sulforhodamine B assay
# M14 = assay: Anticancer activity against human M14 cells after 48 hrs by sulforhodamine B assay
# SK-MEL-2 = assay: Anticancer activity against human SK-MEL-2 cells after 48 hrs by sulforhodamine B assay; settings: SK-MEL-2, 48 h
# SK-MEL-28 = assay: Anticancer activity against human SK-MEL-28 cells after 48 hrs by sulforhodamine B assay
# IGROV-1 = assay: Anticancer activity against human IGROV1 cells after 48 hrs by sulforhodamine B assay; settings: IGROV-1, 48 h; for CC50: read-out: LC50 (the source's name)
# OVCAR-3 = assay: Anticancer activity against human OVCAR-3 cells after 48 hrs by sulforhodamine B assay
# OVCAR-5 = assay: Anticancer activity against human OVCAR5 cells after 48 hrs by sulforhodamine B assay
# 786-0 = assay: Anticancer activity against human 786-0 cells after 48 hrs by sulforhodamine B assay
# CAKI-1 = assay: Anticancer activity against human Caki1 cells after 48 hrs by sulforhodamine B assay
# SN12C = assay: Anticancer activity against human SN12C cells after 48 hrs by sulforhodamine B assay
# TK-10 = assay: Anticancer activity against human TK10 cells after 48 hrs by sulforhodamine B assay
# UO-31 = assay: Anticancer activity against human UO31 cells after 48 hrs by sulforhodamine B assay
# PC-3 = assay: Anticancer activity against human PC3 cells after 48 hrs by sulforhodamine B assay
# DU-145 = assay: Anticancer activity against human DU145 cells after 48 hrs by sulforhodamine B assay
# NCI/ADR-RES = assay: Anticancer activity against human NCI/ADR-RES cells after 48 hrs by sulforhodamine B assay
# [1] = Anticancer activity against human Hs 578T cells after 48 hrs by sulforhodamine B assay
# BT-549 = assay: Anticancer activity against human BT549 cells after 48 hrs by sulforhodamine B assay; settings: for CC50: read-out: LC50 (the source's name)
# T47D = assay: Anticancer activity against human T47D cells after 48 hrs by sulforhodamine B assay
# [2] = Homo sapiens, NCI/ADR-RES, 48 h
compound,measurement,setting,value
CCCCCCCCCCCCCCCCCC[n+]1ccn(C)c1.FC(F)(F)C(F)(F)[P-](F)(F)(F)(C(F)(F)C(F)(F)F)C(F)(F)C(F)(F)F,GI50,"CCRF-CEM; Homo sapiens, CCRF-CEM, 48 h",0.324 µM
same,LC50,"CCRF-CEM; Homo sapiens, CCRF-CEM, 48 h",> 100 µM
same,GI50,"K562; Homo sapiens, K562, 48 h",0.238 µM
same,CC50,"K562; Homo sapiens, K562, 48 h, read-out: LC50 (the source's name)",> 100 µM
same,GI50,"HOP-62; Homo sapiens, HOP-62, 48 h",0.39 µM
same,CC50,"HOP-62; Homo sapiens, HOP-62, 48 h, read-out: LC50 (the source's name)",6.09 µM
same,GI50,"HOP-92; Homo sapiens, HOP-92, 48 h",0.211 µM
same,CC50,"HOP-92; Homo sapiens, HOP-92, 48 h, read-out: LC50 (the source's name)",22 µM
same,GI50,"COLO 205; Homo sapiens, COLO 205, 48 h",0.196 µM
same,CC50,"COLO 205; Homo sapiens, COLO 205, 48 h, read-out: LC50 (the source's name)",0.778 µM
same,GI50,"HCC 2998; Homo sapiens, HCC 2998, 48 h",0.271 µM
same,CC50,"HCC 2998; Homo sapiens, HCC 2998, 48 h, read-out: LC50 (the source's name)",25.5 µM
same,GI50,"HCT-116; Homo sapiens, HCT-116, 48 h",0.294 µM
same,CC50,"HCT-116; Homo sapiens, HCT-116, 48 h, read-out: LC50 (the source's name)",> 100 µM
same,GI50,"KM12; Homo sapiens, KM12, 48 h",0.214 µM
same,CC50,"KM12; Homo sapiens, KM12, 48 h",0.929 µM
same,GI50,"SW-620; Homo sapiens, SW-620, 48 h",0.328 µM
same,LC50,"SW-620; Homo sapiens, SW-620, 48 h",3.74 µM
same,GI50,"SF-268; Homo sapiens, SF-268, 48 h",0.481 µM
same,CC50,"SF-268; Homo sapiens, SF-268, 48 h, read-out: LC50 (the source's name)",5.79 µM
same,GI50,"SF-539; Homo sapiens, SF-539, 48 h",0.288 µM
same,"LC50 (lethal concentration, 50% cell kill)","SF-539; Homo sapiens, SF-539, 48 h",4.19 µM
same,GI50,"SNB-19; Homo sapiens, SNB-19, 48 h",0.422 µM
same,CC50,"SNB-19; Homo sapiens, SNB-19, 48 h, read-out: LC50 (the source's name)",3.95 µM
same,GI50,"SNB-75; Homo sapiens, SNB-75, 48 h",0.419 µM
same,CC50,"SNB-75; Homo sapiens, SNB-75, 48 h",> 100 µM
same,GI50,"U-251; Homo sapiens, U-251, 48 h",0.322 µM
same,CC50,"U-251; Homo sapiens, U-251, 48 h, read-out: LC50 (the source's name)",3.7 µM
same,GI50,"LOX IMVI; Homo sapiens, LOX IMVI, 48 h",0.164 µM
same,CC50,"LOX IMVI; Homo sapiens, LOX IMVI, 48 h",0.678 µM
same,GI50,"Malme-3M; Homo sapiens, Malme-3M, 48 h",0.271 µM
same,LC50 (concentration killing 50% of cells),"Malme-3M; Homo sapiens, Malme-3M, 48 h",4.25 µM
same,GI50,"M14; Homo sapiens, M14, 48 h",0.402 µM
same,LC50 (50% lethal concentration),"M14; Homo sapiens, M14, 48 h",> 100 µM
same,GI50,SK-MEL-2,0.372 µM
same,LC50,SK-MEL-2,> 100 µM
same,GI50,"SK-MEL-28; Homo sapiens, SK-MEL-28, 48 h",0.374 µM
same,LC50,"SK-MEL-28; Homo sapiens, SK-MEL-28, 48 h",3.98 µM
same,GI50,IGROV-1,0.219 µM
same,CC50,IGROV-1,1.45 µM
same,GI50,"OVCAR-3; Homo sapiens, OVCAR-3, 48 h",0.316 µM
same,LC50 (50% lethal concentration),"OVCAR-3; Homo sapiens, OVCAR-3, 48 h",3.79 µM
same,GI50,"OVCAR-5; Homo sapiens, OVCAR-5, 48 h",0.489 µM
same,CC50,"OVCAR-5; Homo sapiens, OVCAR-5, 48 h, read-out: LC50 (the source's name)",32.7 µM
same,GI50,"786-0; Homo sapiens, 786-0, 48 h",0.425 µM
same,LC50 (50% lethal concentration),"786-0; Homo sapiens, 786-0, 48 h",5.36 µM
same,GI50,"CAKI-1; Homo sapiens, CAKI-1, 48 h",0.293 µM
same,LC50,"CAKI-1; Homo sapiens, CAKI-1, 48 h",7.46 µM
same,GI50,"SN12C; Homo sapiens, SN12C, 48 h",0.353 µM
same,LC50,"SN12C; Homo sapiens, SN12C, 48 h",4.18 µM
same,GI50,"TK-10; Homo sapiens, TK-10, 48 h",0.31 µM
same,LC50,"TK-10; Homo sapiens, TK-10, 48 h",4.12 µM
same,GI50,"UO-31; Homo sapiens, UO-31, 48 h",0.365 µM
same,LC50,"UO-31; Homo sapiens, UO-31, 48 h",5.31 µM
same,GI50,"PC-3; Homo sapiens, PC-3, 48 h",0.276 µM
same,CC50,"PC-3; Homo sapiens, PC-3, 48 h, read-out: LC50 (the source's name)",8.03 µM
same,GI50,"DU-145; Homo sapiens, DU-145, 48 h",0.495 µM
same,CC50,"DU-145; Homo sapiens, DU-145, 48 h, read-out: LC50 (the source's name)",4.43 µM
same,GI50,NCI/ADR-RES; [2],0.412 µM
same,LC50,NCI/ADR-RES; [2],12.5 µM
same,GI50,"[1]; Homo sapiens, Hs-578T, 48 h",0.287 µM
same,CC50,"[1]; Homo sapiens, Hs-578T, 48 h, read-out: LC50 (the source's name)",5.43 µM
same,GI50,"BT-549; Homo sapiens, BT-549, 48 h",0.334 µM
same,CC50,"BT-549; Homo sapiens, BT-549, 48 h",4.2 µM
same,GI50,"T47D; Homo sapiens, T47D, 48 h",0.282 µM
same,CC50,"T47D; Homo sapiens, T47D, 48 h, read-out: LC50 (the source's name)",63.7 µM
CCCCCCCCCCCC[n+]1ccn(C)c1.F[B-](F)(F)F,GI50,CCRF-CEM,1.62 µM
same,GI50,K562,0.363 µM
same,GI50,HOP-62,9.48 µM
same,GI50,HOP-92,7.84 µM
same,GI50,COLO 205,3.41 µM
same,GI50,HCC 2998,4.18 µM
same,GI50,HCT-116,2.36 µM
same,GI50,KM12,1.85 µM
same,CC50,KM12,23 µM
same,GI50,SW-620,7.25 µM
same,GI50,SF-268,5.98 µM
same,GI50,SF-539,2.88 µM
same,GI50,SNB-19,10.9 µM
same,GI50,SNB-75,3.71 µM
same,CC50,SNB-75,90.3 µM
same,GI50,U-251,2.81 µM
same,GI50,LOX IMVI,1.36 µM
same,CC50,LOX IMVI,34.9 µM
same,GI50,Malme-3M,5.06 µM
same,GI50,M14,4.15 µM
same,GI50,SK-MEL-28,10.1 µM
same,GI50,IGROV-1,0.533 µM
same,CC50,IGROV-1,> 100 µM
same,GI50,OVCAR-3,3.33 µM
same,GI50,OVCAR-5,7.49 µM
same,GI50,786-0,5.77 µM
same,GI50,CAKI-1,2.99 µM
same,GI50,SN12C,3.35 µM
same,GI50,TK-10,2.04 µM
same,GI50,UO-31,15.9 µM
same,GI50,PC-3,2.08 µM
same,GI50,DU-145,10.9 µM
same,GI50,NCI/ADR-RES,39.7 µM
same,GI50,[1],6.11 µM
same,GI50,BT-549,2.38 µM
same,CC50,BT-549,51.9 µM
same,GI50,T47D,4.31 µM
